Starred links: 1 amine or outer side, 2 acyl side, 3 side chain; linkers in the order of their positions; H or OH if unused. Positions of bridges follow the written chain, without caps; N, C: chain ends. Residues, ends and D or L forms follow the SMILES beside them. *: point of attachment. C18 diacid = O=C(O)CCCCCCCCCCCCCCCCC(=O)*; γGlu = O=C(O)[C@H](CCC(=O)[*:2])N[*:1]; AEEA = NCCOCCOCC(=O)O
Assay: Accelerated chemical stability (RP-UPLC recovery and LCMS degradation pattern, 37° C.)
Format: physicochemical
Parameters: Isomers TZ / Isomers 2 W / Loss of 18 amu TZ / Loss of 18 amu 2 W / Fragments TZ / Fragments 2 W / Fragments 1 W / Fragments 3 W / Fragments 4 W / Fragments 5 W / Fragments 6 W / Others 1 W / Others 3 W / Others 4 W / Others 5 W / Others 6 W / Isomers 1 W / Isomers 3 W / Isomers 4 W / Isomers 5 W / Isomers 6 W / Loss of 18 amu 1 W / Loss of 18 amu 3 W / Loss of 18 amu 4 W / Loss of 18 amu 5 W / Loss of 18 amu 6 W: unit not given here
Conditions: LCMS; for Fragments 2 W / Isomers 2 W / Loss of 18 amu 2 W / Others 2 W: 2 weeks at 37° C.; for Fragments TZ / Isomers TZ / Loss of 18 amu TZ / Others TZ: time zero
Protocol: In order to determine the chemical stability of CNP compounds in formulation, samples of CNP compounds in buffer were exposed to accelerated chemical degradation by heating. The stability of a given peptide was assessed by measuring recovery of intact peptide by quantification by RP-UPLC. To assess the chemical degradation pattern samples were also analysed by LC-MS.
Sample preparation: Samples for the 2 week study were prepared according to the principles described in Example 5.
Samples for the 6 week study were prepared by dissolving lyophilized peptide in buffer (8 mM phosphate, 250 mM glycerol, pH 7.4) to a nominal peptide concentration of 5000 nmol/ml followed by pH adjustment with 0.1 N HCl to pH 6.5.
Incubation: For the 2 week study a time-zero (TZ) sample was pulled and stored at −18° C. and the remaining volume was incubated at 37° C. Samples were pulled and stored at −18° C. after 2 weeks of incubation. Frozen samples were thawed, diluted to about 200 nmol/mL and the extent of chemical degradation was determined using LCMS as described.
For the 6 week study a time-zero (TZ) sample was pulled and stored at −18° C. and the remaining volume was incubated at 37° C. Samples were pulled on a weekly basis and stored at −18° C. until the last sampling time point at 6 weeks. Frozen samples were thawed, diluted to about 200 nmol/mL and the extent of chemical degradation was determined using RP-UPLC and LCMS as described.
Analysis of peptide recovery by RP-UPLC: The RP-UPLC method was performed on a Waters ACQUITY H-CLASS UPLC system fitted with a PDA detector. Separation was carried out on an ACQUITY UPLC BEH C8 Column (130 Å, 1.7 μm, 2.1 mm×150 mm) operating at a column temperature of 50° C. with eluent A (19.59 mM NH4H2PO4 41.71 mM (NH4)2HPO4, pH 6.5 and MeCN 9:1 v:v) and eluent B (80% MeCN in water). UV-detection was carried out at 214 nm. The analysis was performed by injection of 3 μL of sample onto the column which was eluted with a 1-step linear gradient of eluents A and B from 27 to 30% B over 20 minutes followed by a wash at 95% B over 2 minutes followed by a re-equilibration phase for 7 minutes at a constant flow rate of 0.3 mL/min. This yielded an analysis time of 30 minutes per sample. The area of the peak corresponding to intact CNP compound was given on a percentage scale relative to the total peptide peak area.
Analysis of chemical degradation patterns by LCMS: Samples were analysed on a […] UPLC from Thermo Scientific, using a Waters Acquity C18 reversed-phase column, 300 Å, […] particles 1 mm×150 mm. The compounds were separated by a linear gradient of solvent B from 5% to 55% over 48 minutes, using solvent A: water, 0.1% formic acid with 0.02% TFA and solvent B: acetonitrile, 0.1% formic acid with 0.02% TFA. Mass spectra were acquired by a Q Exactive Plus hybrid Quadrupole-Orbitrap mass spectrometer, BioPharma option (Thermo Scientific) interfaced with H-ESI II ion source. Data acquisitions were performed with a m/z 500 to 2000 scan range and a resolution of 30000.
The data list was aggregated into a summed table of the compounds. The table headers were defined as follows: […]
Results: The results from LCMS analysis of a 2 week accelerated degradation study on several CNP compounds of the present invention are summarised in Table 12. The results from RP-UPLC and LCMS analysis of a 6 week accelerated degradation study on CNP compound 9482 (Chem. 137) is summarised in Table 13 and Table 14 respectively.

[1] = 5 mM sodium acetate, 250 mM glycerol, pH 4
[2] = 8 mM sodium phosphate, 250 mM glycerol, pH 6.5
[3] = 6 week study, 3 weeks at 37° C.
[4] = 6 week study, 4 weeks at 37° C.
[5] = 6 week study, 5 weeks at 37° C.
[6] = 6 week study, 6 weeks at 37° C.

For `CC[C@H](C)[C@@H]1NC(=O)[C@H](CCCNC(=N)N)NC(=O)[C@H](CC(=O)O)NC(=O)[C@H](CC(C)C)NC(=O)[C@@H]2CCCN2C(=O)[C@H](CC(C)C)NC(=O)CNC(=O)[C@H](Cc2ccccc2)NC(=O)[C@@H](NC(=O)CNC(=O)[C@H](CCC(N)=O)NC(=O)[C@H](CO)NC(=O)CNC(=O)CNC(=O)[C@H](CCCCN)NC(=O)[C@H](CCCCN)NC(=O)[C@H](CCC(N)=O)NC(=O)[C@H](C)NC(=O)CNC(=O)[C@H](CCCCN)NC(=O)[C@H](Cc2ccc(O)cc2)NC(=O)COCCOCCNC(=O)COCCOCCNC(=O)COCCOCCNC(=O)COCCOCCNC(=O)CC[C@H](NC(=O)CC[C@H](NC(=O)CCCCCCCCCCCCCCCCC(=O)O)C(=O)O)C(=O)O)CSSC[C@@H](C(=O)O)NC(=O)CNC(=O)[C@H](CC(C)C)NC(=O)CNC(=O)[C@H](CO)NC(=O)[C@H](CC(C)C)NC(=O)[C@H](CO)NC(=O)CNC1=O` [Compound 9435] ({C18 diacid-γGlu-γGlu-AEEA-AEEA-AEEA-AEEA}-YKGAQKKGGSQGCFGLPLDRIGSLSGLGC-OH; disulfide 13-29), the “Fragments 2 W” value [1] was 0, the “Isomers 2 W” value [1] was 0.6 and the “Loss of 18 amu 2 W” value [1] was 4.1. The Others 2 W [1] was 0%, the “Fragments TZ” value [1] was 0 and the “Isomers TZ” value [1] was 0. For the same compound, the “Loss of 18 amu TZ” value [1] was 0 and the Others TZ [1] was 0%.

In the case of `CC[C@H](C)[C@@H]1NC(=O)[C@H](CCCNC(=N)N)NC(=O)[C@H](CC(=O)O)NC(=O)[C@H](CC(C)C)NC(=O)[C@@H]2CCCN2C(=O)[C@H](CC(C)C)NC(=O)CNC(=O)[C@H](Cc2ccccc2)NC(=O)[C@@H](NC(=O)CNC(=O)[C@H](CCC(N)=O)NC(=O)[C@H](CO)NC(=O)[C@H](CC(C)C)NC(=O)CNC(=O)[C@H](CCCCN)NC(=O)[C@H](CCCCN)NC(=O)[C@H](CCC(N)=O)NC(=O)[C@H](C)NC(=O)CNC(=O)[C@H](CCCCN)NC(=O)[C@H](Cc2ccc(O)cc2)NC(=O)COCCOCCNC(=O)COCCOCCNC(=O)COCCOCCNC(=O)COCCOCCNC(=O)CC[C@H](NC(=O)CC[C@H](NC(=O)CC[C@H](NC(=O)CCCCCCCCCCCCCCCCC(=O)O)C(=O)O)C(=O)O)C(=O)O)CSSC[C@@H](C(=O)O)NC(=O)CNC(=O)[C@H](CC(C)C)NC(=O)CNC(=O)[C@H](CO)NC(=O)[C@H](CC(C)C)NC(=O)[C@H](CO)NC(=O)CNC1=O` [Compound 9480] ({C18 diacid-γGlu-γGlu-γGlu-AEEA-AEEA-AEEA-AEEA}-YKGAQKKGLSQGCFGLPLDRIGSLSGLGC-OH; disulfide 13-29), the “Fragments 2 W” value [2] is reported as 0, the “Isomers 2 W” value [2] is reported as 0 and the “Loss of 18 amu 2 W” value [2] is reported as 0. For the same compound, the Others 2 W [2] was 0.6%, the “Fragments TZ” value [2] was 0 and the “Isomers TZ” value [2] was 0. The “Loss of 18 amu TZ” value [2] was 0 and the Others TZ [2] was 0%.

In the case of `CC[C@H](C)[C@@H]1NC(=O)[C@H](CCCNC(=N)N)NC(=O)[C@H](CC(=O)O)NC(=O)[C@H](CC(C)C)NC(=O)[C@@H]2CCCN2C(=O)[C@H](CC(C)C)NC(=O)CNC(=O)[C@H](Cc2ccccc2)NC(=O)[C@@H](NC(=O)CNC(=O)[C@H](CO)NC(=O)[C@H](CO)NC(=O)[C@H](CC(C)C)NC(=O)CNC(=O)[C@H](CCCCN)NC(=O)[C@H](CCCCN)NC(=O)[C@H](CCC(N)=O)NC(=O)[C@H](C)NC(=O)CNC(=O)[C@H](CCCCN)NC(=O)[C@H](Cc2ccc(O)cc2)NC(=O)[C@H](CCCCN)NC(=O)[C@H](CCCNC(=N)N)NC(=O)[C@H](C)NC(=O)[C@H](CCC(N)=O)NC(=O)[C@@H]2CCCN2C(=O)[C@H](Cc2c[nH]cn2)NC(=O)[C@H](CCC(=O)O)NC(=O)[C@H](CCC(N)=O)NC(=O)CC[C@H](NC(=O)CC[C@H](NC(=O)CC[C@H](NC(=O)CC[C@H](NC(=O)CC[C@H](NC(=O)CCCCCCCCCCCCCCCCC(=O)O)C(=O)O)C(=O)O)C(=O)O)C(=O)O)C(=O)O)CSSC[C@@H](C(=O)O)NC(=O)CNC(=O)[C@H](CC(C)C)NC(=O)CNC(=O)[C@H](CO)NC(=O)[C@H](CC(C)C)NC(=O)[C@H](CO)NC(=O)CNC1=O` [Compound 9482] ({C18 diacid-γGlu-γGlu-γGlu-γGlu-γGlu}-QEHPQARKYKGAQKKGLSSGCFGLPLDRIGSLSGLGC-OH; disulfide 21-37), the “Fragments 2 W” value [2] is reported as 0, the “Isomers 2 W” value [2] is reported as 0 and the “Loss of 18 amu 2 W” value [2] is reported as 0. For the same compound, the Others 2 W [2] was 0.3%, the “Fragments TZ” value [2] was 0 and the “Isomers TZ” value [2] was 0. For the same compound, the “Loss of 18 amu TZ” value [2] was 0 and the Others TZ [2] was 0%.

With `CC[C@H](C)[C@@H]1NC(=O)[C@H](CCCNC(=N)N)NC(=O)[C@H](CC(=O)O)NC(=O)[C@H](CC(C)C)NC(=O)[C@@H]2CCCN2C(=O)[C@H](CC(C)C)NC(=O)CNC(=O)[C@H](Cc2ccccc2)NC(=O)[C@@H](NC(=O)CNC(=O)[C@H](CO)NC(=O)[C@H](CO)NC(=O)[C@H](CC(C)C)NC(=O)CNC(=O)[C@H](CCCCN)NC(=O)[C@H](CCCCN)NC(=O)[C@H](CCC(N)=O)NC(=O)[C@H](C)NC(=O)CNC(=O)[C@H](CCCCN)NC(=O)[C@H](Cc2ccc(O)cc2)NC(=O)[C@H](CCCCN)NC(=O)[C@H](CCCNC(=N)N)NC(=O)[C@H](C)NC(=O)[C@H](CCC(N)=O)NC(=O)[C@@H]2CCCN2C(=O)[C@H](Cc2c[nH]cn2)NC(=O)[C@H](CCC(=O)O)NC(=O)[C@H](CCC(N)=O)NC(=O)CC[C@H](NC(=O)CC[C@H](NC(=O)CC[C@H](NC(=O)CC[C@H](NC(=O)CC[C@H](NC(=O)CCCCCCCCCCCCCCCCC(=O)O)C(=O)O)C(=O)O)C(=O)O)C(=O)O)C(=O)O)CSSC[C@@H](C(=O)O)NC(=O)CNC(=O)[C@H](CC(C)C)NC(=O)CNC(=O)[C@H](CO)NC(=O)[C@H](CC(C)C)NC(=O)[C@H](CO)NC(=O)CNC1=O` [compound 9482] ({C18 diacid-γGlu-γGlu-γGlu-γGlu-γGlu}-QEHPQARKYKGAQKKGLSSGCFGLPLDRIGSLSGLGC-OH; disulfide 21-37) the “Fragments 1 W” value (6 week study, 1 week at 37° C.) was 0.20, the “Isomers 1 W” value (6 week study, 1 week at 37° C.) was 0.00 and the “Loss of 18 amu 1 W” value (6 week study, 1 week at 37° C.) was 0.00. The “Others 1 W” value (6 week study, 1 week at 37° C.) was 0.30, the “Fragments 2 W” value (6 week study) was 0.30 and the “Isomers 2 W” value (6 week study) was 0.60. The “Loss of 18 amu 2 W” value (6 week study) was 0.10, the Others 2 W (6 week study) was 0.3% and the “Fragments 3 W” value [3] was 0.50. The “Isomers 3 W” value [3] was 1.20, the “Loss of 18 amu 3 W” value [3] was 0.10 and the “Others 3 W” value [3] was 0.30. For the same compound, the “Fragments 4 W” value [4] was 0.90, the “Isomers 4 W” value [4] was 1.70 and the “Loss of 18 amu 4 W” value [4] was 0.20. The “Others 4 W” value [4] was 0.50, the “Fragments 5 W” value [5] was 0.80 and the “Isomers 5 W” value [5] was 2.40. For the same compound, the “Loss of 18 amu 5 W” value [5] was 0.20, the “Others 5 W” value [5] was 0.40 and the “Fragments 6 W” value [6] was 1.20. For the same compound, the “Isomers 6 W” value [6] was 3.90, the “Loss of 18 amu 6 W” value [6] was 0.30 and the “Others 6 W” value [6] was 0.50. For the same compound, the “Fragments TZ” value (6 week study) was 0.00, the “Isomers TZ” value (6 week study) was 0.00 and the “Loss of 18 amu TZ” value (6 week study) was 0.00. For the same compound, the Others TZ (6 week study) was 0.2%.

Reference: US20240209028A1, “CNP COMPOUNDS” (priority 2022, published 2024)
